Like-named read-outs stand apart in the source and are kept apart here.
Columns and labels:
lipases, preferably HSL = target: T1, lipases, preferably HSL (Rattus norvegicus, UniProt P15304); assay: Synthesized NBD-acylglycerides as substrates of lipases; type: biochemical
T1 sequence (P15304 1-768 isoform P15304-2): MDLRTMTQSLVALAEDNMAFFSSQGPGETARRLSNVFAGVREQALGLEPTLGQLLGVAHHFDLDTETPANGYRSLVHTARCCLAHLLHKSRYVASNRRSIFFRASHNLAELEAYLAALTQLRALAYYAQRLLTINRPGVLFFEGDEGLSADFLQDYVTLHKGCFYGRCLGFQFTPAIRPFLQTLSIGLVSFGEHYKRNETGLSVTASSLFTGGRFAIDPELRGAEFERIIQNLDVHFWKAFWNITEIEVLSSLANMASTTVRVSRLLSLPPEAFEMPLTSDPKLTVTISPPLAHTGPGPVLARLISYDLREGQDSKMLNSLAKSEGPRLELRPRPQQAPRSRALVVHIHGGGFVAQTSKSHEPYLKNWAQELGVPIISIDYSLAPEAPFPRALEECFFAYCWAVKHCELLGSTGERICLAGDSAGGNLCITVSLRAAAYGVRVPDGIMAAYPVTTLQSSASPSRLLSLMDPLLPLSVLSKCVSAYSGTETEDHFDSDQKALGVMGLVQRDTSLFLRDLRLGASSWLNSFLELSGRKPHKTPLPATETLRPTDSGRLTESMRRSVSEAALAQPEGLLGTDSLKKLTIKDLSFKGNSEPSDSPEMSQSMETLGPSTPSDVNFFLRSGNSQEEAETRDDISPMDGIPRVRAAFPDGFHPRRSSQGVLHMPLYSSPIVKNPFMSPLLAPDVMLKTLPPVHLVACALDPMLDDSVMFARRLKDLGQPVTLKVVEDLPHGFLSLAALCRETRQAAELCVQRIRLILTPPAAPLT

HSL = target: T2, HSL (Rattus norvegicus, UniProt P15304); assay: Indirect NAG assay (extinction increase at 481 nm); type: biochemical; details: for Absorption at 481 nm: HSL 20 μg, 60 min, NAG 0.05 mg/ml
T2 construct: The partially purified HSL can be stored at −70° C. for 4 to 6 weeks; from tissue; host or cells: rat epididymal fat cells (male Wistar rats)
T2 sequence (P15304 1-768 isoform P15304-2): T1 sequence (P15304 1-768 isoform P15304-2)
Method: A typical reaction is carried out at 30° C. for 60 min, for example in 1.5 ml Eppendorf vessels or 96-hole plates. […] 180 μl of the substrate solution (20 μg/ml of phosphatidylcholine, 10 μg/ml of phosphatidylinositol, 50 μg/ml of NAG in assay buffer) are added. After a preincubation for 15 min at 30° C., 20 μl of HSL in assay buffer are pipetted in and the extinction is immediately measured (see above) at 481 nm in a cuvette photometer (0.5 ml cuvette) or microtiter plate reader. After a certain incubation time, which is variable and depends on the chosen enzyme concentration and can be between 2 and 240 minutes, in this case incubation at 30° C. for 60 min, the extinction is measured again. The increase in the extinction in the yellow region, in this case at 481 nm, is a measure of the enzyme activity.
Isolated rat fat cells are obtained from epididymal fatty tissue from untreated male rats (Wistar, 220-250 g) by collagenase treatment according to published processes. The fat cells from 10 rats are washed three times by flotation with 50 ml each of homogenization buffer ([…], pH 7.4, 0.25 M sucrose, 1 mM ethylenediamine-N,N,N′,N′-tetraacetic acid (EDTA), 1 mM dithiothreitol (DTT), 10 μg/ml of leupeptin, 10 μg/ml of antipain, 20 μg/ml of pepstatin) and finally taken up in 10 ml of homogenization buffer. The fat cells are homogenized in a Teflon-in-glass homogenizer (Braun-Melsungen) by 10 strokes at 1500 rpm and 15° C. The homogenizate is centrifuged (Sorvall SM24 tubes, 5000 rpm, 10 min, 4° C.). The […] between the overlying fatty layer and the pellet is removed and the centrifugation is repeated. The […] resulting from this is centrifuged again (Sorvall SM24 tubes, 20,000 rpm, 45 min, 4° C.). […] After incubation for 60 min at 4° C. (shake at intervals of 15 min), the batch is centrifuged (Sorvall SM24 tubes, 3000 rpm, 10 min, 4° C.). The supernatant is brought to pH 5.2 by addition of glacial acetic acid and incubated at 4° C. for 30 min. […] The suspension is dialyzed overnight at 4° C. against 25 mM TRIS/HCl, pH 7.4, 50% glycerol, 1 mM DTT, and 10 μg/ml of leupeptin, pepstatin, and antipain and then applied to a hydroxylapatite column (0.1 g per 1 ml of suspension, equilibrated with 10 mM potassium phosphate, pH 7.0, 30% glycerol, 1 mM DTT). The column is washed with four volumes of equilibration buffer at a flow rate of 20 to 30 ml/h. The HSL is eluted with a volume of equilibration buffer which contains 0.5 M potassium phosphate, then dialyzed (see above) and concentrated 5 to 10 times by ultrafiltration (Amicon Diaflo PM 10 filter) at 4° C. The partially purified HSL can be stored at −70° C. for 4 to 6 weeks.
6 mg of phosphatidylcholine and 6 mg of phosphatidylinositol are dissolved in 1 ml of chloroform each. 10 mg of NAG are dissolved in 1 ml of chloroform. […] The chloroform (225 μl total volume) is completely removed by overblowing with a stream of N2. The dried substrate can be stored at 4° C. for up to three days. For the preparation of the phospholipid vesicles/micelles having intercalated NAG (on the test day), the dried substrate is taken up in 20 ml of assay buffer (25 mM TRIS/HCl, pH 7.4; 150 mM NaCl) and two ultrasonic treatments with an ultrasonic probe (Branson Sonifier type 11, standard microtip): 1st treatment setting 2, 2×1 min, in between in each case 1 min on ice; 2nd treatment setting 4, 2×1 min, in between in each case 1 min on ice. […] Before use as a substrate (within the next 2 h), the solution is additionally incubated on ice for 15 min.
The assay is carried out at 30° C. for 60 min in 1.5 ml Eppendorf vessels or 96-hole plates.

[1] = Substrate stability towards detergents and solvents (extinction at 550 nm); type: physicochemical; details: for Absorption at 550 nm: NAG 0.05 mg/ml, 37° C., 180 min

Row | Compound | Activity as substrate of lipases (lipases, preferably HSL) | Absorption at 550 nm ([1]; agent 0.05 %) | Absorption at 550 nm ([1]; agent 0.1 %) | Absorption at 550 nm ([1]; agent 0.2 %) | Absorption at 550 nm ([1]; agent 0.5 %) | Absorption at 550 nm ([1]; agent 1 %) | Absorption at 550 nm ([1]; agent 2 %) | Absorption at 550 nm ([1]; agent 5 %) | Absorption at 550 nm ([1]; agent 10 %) | Effect on the HSL activity (HSL) | other results
1 | 2-Hydroxy-3-[12-(7-nitrobenzo[1,2,5]oxadiazol-4-ylamino)-odecanoyloxy]propyl hexadecanoate [Compound (6)] | decrease in activity | – | – | – | – | – | – | – | – | – | –
2 | CCCCCCCCCCCCCCCC(=O)OCC(COC(=O)CCCCCCCCCCCNc1ccc([N+](=O)[O-])c2nonc12)OC(C)=O (stereo not drawn) [Compound (7), 2-Acetyloxy-3-[12-(7-nitrobenzo[1,2,5]oxadiazol-4-ylamino)-dodecanoyloxy]propyl hexadecanoate] | decrease in activity | – | – | – | – | – | – | – | – | – | –
3 | CO [Methanol] | – | 3056 ± 243 arb. units | 3102 ± 276 arb. units | 2945 ± 241 arb. units | 2683 ± 210 arb. units | 2534 ± 191 arb. units | 1985 ± 165 arb. units | 1438 ± 121 arb. units | 475 ± 92 arb. units | increase in the HSL activity | –
4 | CC(C)=O [acetone] | – | – | – | – | – | – | – | – | – | increase in the HSL activity | –
5 | CN(C)C=O [DMF, N,N-Dimethylformamide] | – | 3121 ± 294 arb. units | 2655 ± 308 arb. units | 1952 ± 299 arb. units | 1234 ± 234 arb. units | 654 ± 112 arb. units | 251 ± 82 arb. units | 105 ± 42 arb. units | 38 ± 10 arb. units | significant loss in activity | NAG released from the phospholipid/vesicle structures ([1]; 1% agent): over 80%

Further lines, with some results ahead:

Row | Activity as substrate of lipases (lipases, preferably HSL) | Absorption at 550 nm ([1]; agent 0.05 %) | Absorption at 550 nm ([1]; agent 0.1 %) | Absorption at 550 nm ([1]; agent 0.2 %) | Absorption at 550 nm ([1]; agent 0.5 %) | Absorption at 550 nm ([1]; agent 1 %) | Absorption at 550 nm ([1]; agent 2 %) | Absorption at 550 nm ([1]; agent 5 %) | Absorption at 550 nm ([1]; agent 10 %) | Compound | Effect on the HSL activity (HSL) | other results
6 | – | 3166 ± 308 arb. units | 3247 ± 253 arb. units | 3119 ± 277 arb. units | 2954 ± 248 arb. units | 2154 ± 199 arb. units | 956 ± 101 arb. units | 489 ± 77 arb. units | 167 ± 45 arb. units | Triton ® X-100 [TX-100] | increase in the HSL activity | –
7 | identical biological activity | – | – | – | – | – | – | – | – | O=C(CCCCCCCCCCCNc1ccc([N+](=O)[O-])c2nonc12)OC[C@H](O)CO [Compound (3b), (R)-2,3-dihydroxypropyl 12-(7-nitrobenzo[1,2,5]oxadiazol-4-ylamino)dodecanoate] | – | –
8 | – | 3063 ± 288 arb. units | 2935 ± 254 arb. units | 2769 ± 275 arb. units | 2506 ± 301 arb. units | 2296 ± 252 arb. units | 1413 ± 178 arb. units | 603 ± 89 arb. units | 102 ± 12 arb. units | CCCCCCCCCCCCOS(=O)(=O)[O-].[Na+] [SDS, Sodium dodecyl sulfate] | – | –
9 | – | 3147 ± 288 arb. units | 3056 ± 213 arb. units | 3097 ± 253 arb. units | 2995 ± 231 arb. units | 2834 ± 256 arb. units | 2510 ± 194 arb. units | 1935 ± 163 arb. units | 873 ± 103 arb. units | CCO [Ethanol] | – | Absorption at 481 nm (HSL; agent 0.05 %): 3776 ± 253 arb. units; Absorption at 481 nm (HSL; agent 0.1 %): 4093 ± 387 arb. units; Absorption at 481 nm (HSL; agent 0.2 %): 4894 ± 325 arb. units; Absorption at 481 nm (HSL; agent 0.5 %): 4231 ± 296 arb. units; Absorption at 481 nm (HSL; agent 1 %): 3541 ± 294 arb. units; Absorption at 481 nm (HSL; agent 2 %): 2143 ± 215 arb. units; Absorption at 481 nm (HSL; agent 5 %): 1327 ± 143 arb. units; Absorption at 481 nm (HSL; agent 10 %): 423 ± 55 arb. units; Effect on the HSL activity (HSL; between 0.1 and 1% agent): increase in the HSL activity
10 | decrease in activity | – | – | – | – | – | – | – | – | CCCCCC(=O)OCC(COC(=O)CCCCCCCCCCCNc1ccc([N+](=O)[O-])c2nonc12)OC(=O)CCCCC (stereo not drawn) [Compound (5), 2-Hexanoyloxy-3-[12-(7-nitrobenzo[1,2,5]oxadiazol-4-ylamino)-dodecanoyloxy]propyl hexanoate] | – | –
11 | – | 3003 ± 259 arb. units | 3199 ± 302 arb. units | 2984 ± 273 arb. units | 3055 ± 289 arb. units | 2845 ± 254 arb. units | 2317 ± 266 arb. units | 1432 ± 187 arb. units | 372 ± 51 arb. units | C[S+](C)[O-] [DMSO, Dimethyl sulfoxide] | – | Reduction of the enzyme activity (HSL; 0.5% agent): 10%; Decrease in the enzyme activity (arithmetically) (HSL; 1% agent, corrected for substrate dissolution): 20%; Absorption at 481 nm (HSL; agent 0.05 %): 3423 ± 286 arb. units; Absorption at 481 nm (HSL; agent 0.1 %): 3320 ± 319 arb. units; Absorption at 481 nm (HSL; agent 0.2 %): 3301 ± 276 arb. units; Absorption at 481 nm (HSL; agent 0.5 %): 3199 ± 235 arb. units; Absorption at 481 nm (HSL; agent 1 %): 3156 ± 196 arb. units; Absorption at 481 nm (HSL; agent 2 %): 1488 ± 213 arb. units; Absorption at 481 nm (HSL; agent 5 %): 945 ± 169 arb. units; Absorption at 481 nm (HSL; agent 10 %): 272 ± 42 arb. units; Reduction of the amount of released NBD-FA (HSL; up to 1% agent): approximately 10%; Decrease of the extinction (amount of substrate) ([1]; 1% agent): 10%

Reference: patent US6783949B1, “Processes for determining whether a test substance contains lipases or lipase inhibitors” (Aventis Pharma Deutschland GmbH, priority 1999, dated 2004)
